28 molecules from ChEMBL document CHEMBL3826905, “1'-Homonucleosides and their structural analogues: A review” (Eur J Med Chem, 2016) can be followed below.

For experiment [1], the system named is Human alphaherpesvirus 3. The experiment in a line: Antiviral activity against TK-deficient Varicella-zoster virus infected in HEL cells. It counts as functional, organism-based. To be noted: Human alphaherpesvirus 3, HEL.
In experiment [2] the test system is Cytomegalovirus. Briefly: Antiviral activity against Cytomegalovirus AD169 infected in HEL cells. It counts as functional, organism-based. To be noted: Human betaherpesvirus 5, AD169, HEL.
Experiment [3] deals with Cytomegalovirus. Briefly: Antiviral activity against Cytomegalovirus Davis 07/1 infected in HEL cells. It counts as functional, organism-based. To be noted: Human betaherpesvirus 5, Davis 07/1, HEL.
Experiment [4] in a line: Cytostatic activity against mouse L1210/0 cells. The format is functional, cell-based. To be noted: Mus musculus, L1210/0.
For experiment [5], the system named is MOLT-4. The experiment in a line: Cytostatic activity against human Molt4/C8 cells. It counts as functional, cell-based. To be noted: Homo sapiens, MOLT-4.
Experiment [6] has as its system CCRF-CEM. Briefly: Cytostatic activity against human CEM/0 cells. The format is functional, cell-based.
Experiment [7] relates to Influenza A virus. The experiment in a line: Antiviral activity against Influenza A virus. The format is functional, organism-based.
A short description of experiment [8]: Antiproliferative activity against mouse L1210/0 cells. It counts as functional, cell-based.
Experiment [9] is described as follows: Antiproliferative activity against human Molt4/C8 cells. It counts as functional, cell-based. To be noted: MOLT-4.
Experiment [10] in a line: Antiproliferative activity against mouse L1210/0 cells after 48 hrs by trypan blue staining method. It counts as functional, cell-based. To be noted: L1210/0, 48 h.
Experiment [11] deals with Isoleucine--tRNA ligase (Escherichia coli K-12, UniProt P00956). The experiment in a line: Inhibition of Escherichia coli isoleucyl-tRNA synthetase assessed as decrease in [3H]isoleucyl-tRNA generation.
Experiment [12] can be described thus: Inhibition of Escherichia coli methionyl-tRNA synthetase assessed as decrease in [35S]methionyl-tRNA generation.
Experiment [13] deals with Hepatitis C virus. The experiment in a line: Antiviral activity against Hepatitis C virus. It counts as functional, organism-based, Hepacivirus hominis.
Experiment [14] addresses T1, Inosine-uridine preferring nucleoside hydrolase (Crithidia fasciculata, UniProt Q27546).
T1 sequence (Q27546 whole entry): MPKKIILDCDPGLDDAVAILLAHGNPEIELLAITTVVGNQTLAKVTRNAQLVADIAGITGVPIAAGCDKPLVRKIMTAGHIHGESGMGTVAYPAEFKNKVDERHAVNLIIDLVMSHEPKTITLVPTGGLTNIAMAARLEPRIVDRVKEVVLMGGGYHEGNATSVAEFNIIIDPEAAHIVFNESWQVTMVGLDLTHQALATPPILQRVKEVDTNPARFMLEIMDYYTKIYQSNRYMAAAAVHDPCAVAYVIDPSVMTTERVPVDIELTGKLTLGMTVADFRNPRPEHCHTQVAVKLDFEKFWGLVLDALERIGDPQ
Briefly: Inhibition of Crithidia fasciculata inosine-uridine nucleoside hydrolase expressed in Escherichia coli using p-nitrophenyl beta-D-ribofuranoside as substrate by xanthine oxidase coupled enzyme assay.

In experiment [15] the target is T2, Inosine-adenosine-guanosine-nucleoside hydrolase (Trypanosoma brucei brucei, UniProt O15727).
T2 sequence (O15727 whole entry): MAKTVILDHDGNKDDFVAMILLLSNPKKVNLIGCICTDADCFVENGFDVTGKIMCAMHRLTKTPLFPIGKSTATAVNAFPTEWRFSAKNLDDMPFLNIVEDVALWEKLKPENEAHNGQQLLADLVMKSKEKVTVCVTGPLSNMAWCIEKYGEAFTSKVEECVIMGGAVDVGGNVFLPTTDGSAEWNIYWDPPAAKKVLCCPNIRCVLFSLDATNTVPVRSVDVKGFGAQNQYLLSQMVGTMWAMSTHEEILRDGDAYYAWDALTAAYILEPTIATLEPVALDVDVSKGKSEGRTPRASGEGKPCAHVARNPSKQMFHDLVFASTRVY
The experiment in a line: Inhibition of Trypanosoma brucei brucei inosine-adenosine-guanosine nucleoside hydrolase expressed in Escherichia coli.

The subject of experiment [16] is Human immunodeficiency virus 1. The experiment in a line: Antiviral activity against HIV1. It counts as functional, organism-based.
Experiment [17] relates to Human immunodeficiency virus 2. The experiment in a line: Antiviral activity against HIV2. It counts as functional, organism-based.

In brackets after ≈: the same amount, converted by molar mass.

Broadly, the EC50 is the midpoint of the concentration-response curve. Low values mean greater potency, high ones weaker potency. For orientation: IC50 means the concentration that gives 50% inhibition. The term Ki denotes a dissociation constant, usually derived from enzyme kinetics or from competition with a known ligand.

Chain of Isoleucine--tRNA ligase (P00956 whole entry): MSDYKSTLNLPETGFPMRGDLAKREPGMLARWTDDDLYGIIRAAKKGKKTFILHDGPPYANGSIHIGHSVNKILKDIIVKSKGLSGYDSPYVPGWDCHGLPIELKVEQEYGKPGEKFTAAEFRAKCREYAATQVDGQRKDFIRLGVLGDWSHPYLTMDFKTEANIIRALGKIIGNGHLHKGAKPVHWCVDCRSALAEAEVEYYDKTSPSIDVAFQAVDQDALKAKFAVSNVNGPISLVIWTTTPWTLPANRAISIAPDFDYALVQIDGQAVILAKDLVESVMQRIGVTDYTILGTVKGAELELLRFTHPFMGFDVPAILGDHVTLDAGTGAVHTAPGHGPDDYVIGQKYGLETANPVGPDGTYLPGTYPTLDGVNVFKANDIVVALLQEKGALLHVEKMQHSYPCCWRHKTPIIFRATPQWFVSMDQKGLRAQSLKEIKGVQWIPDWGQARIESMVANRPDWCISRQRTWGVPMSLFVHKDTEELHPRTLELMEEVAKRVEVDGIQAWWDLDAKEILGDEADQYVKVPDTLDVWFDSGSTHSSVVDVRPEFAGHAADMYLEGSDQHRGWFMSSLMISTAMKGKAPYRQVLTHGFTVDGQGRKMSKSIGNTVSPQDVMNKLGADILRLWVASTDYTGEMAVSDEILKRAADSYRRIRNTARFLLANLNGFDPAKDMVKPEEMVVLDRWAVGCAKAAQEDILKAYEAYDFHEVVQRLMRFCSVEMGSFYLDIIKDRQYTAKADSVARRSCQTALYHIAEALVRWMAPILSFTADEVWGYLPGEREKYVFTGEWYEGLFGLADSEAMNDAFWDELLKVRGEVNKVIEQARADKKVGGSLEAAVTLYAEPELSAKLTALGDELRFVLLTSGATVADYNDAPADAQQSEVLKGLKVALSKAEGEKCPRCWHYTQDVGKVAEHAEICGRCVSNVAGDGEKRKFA

On to `CC(C)(C)[Si](OC[C@H]1C[C@@H](Cn2cnc3c(N)ncnc32)c2cn(Cc3ccccc3)nc21)(c1ccccc1)c1ccccc1`, for which the values for the EC50 in experiment [1], in experiment [2] and in experiment [3] were 1.5 µM, 0.5 µM and 0.5 µM, respectively.

Take `Cn1ncc2c1[C@H](Cn1cnc3c(Cl)ncnc31)C[C@@H]2CO[Si](c1ccccc1)(c1ccccc1)C(C)(C)C`: the half-inhibitory concentration (IC50) in [4], in experiment [5] and in experiment [6] was 3.2 mg/L (≈ 5.74 µM) in each case.

Regarding `OC[C@H]1C[C@@H](Cn2cnc3c(O)ncnc32)c2ccccc21`, the IC50 in experiment [4], in experiment [5] and in [6] was 24 mg/L (≈ 81 µM) throughout.

In experiment [7], `Nc1ccn(C[C@H]2C[C@H](O)[C@@H](CO)O2)c(=O)n1` displayed a 50% inhibitory concentration (IC50) of 67.3 mg/L (≈ 279 µM).

Take `Cc1ccc(-c2ncnc3c2ncn3C[C@@H]2C[C@H](CO)c3ccccc32)cc1`: the IC50 in [4], in experiment [5] and in experiment [6] was 1.4 mg/L (≈ 3.78 µM) each time.

Consider `CCOc1ncnc2c1ncn2C[C@@H]1C[C@H](CO)c2ccccc21`, for which the IC50 in experiment [4], in experiment [5] and in experiment [6] was 24 mg/L (≈ 74 µM) in each case.

As for `O=c1[nH]cnc2c1ncn2C[C@H]1C[C@H](O)[C@@H](CO)O1`, the IC50 in experiment [7] is 25.2 mg/L (≈ 94.6 µM).

For the molecule `O=c1[nH]cnc2c1ncn2C[C@H]1C[C@H](OCc2ccccc2)[C@@H](COCc2ccccc2)O1`, in experiment [7], the IC50 was found to be 24.3 mg/L (≈ 54.4 µM).

As for `Nc1ncnc2c1ncn2C[C@@H]1C[C@H](CO)c2ccccc21`, the IC50 in experiment [4], in experiment [5] and in experiment [6] was 24 mg/L (≈ 81.3 µM) each time.

Take `O=c1[nH]c(=O)n([C@H]2CC[C@@H](CO)C2)cc1I`: the concentration for half-maximal inhibition (IC50) in experiment [8] and in [9] was 73 mg/L (≈ 217 µM) throughout.

With `OC[C@H]1C[C@@H](Cn2cnc3c(-c4ccc(Cl)cc4)ncnc32)c2ccccc21`, the 50% inhibitory concentration (IC50) in experiment [4], in experiment [5] and in experiment [6] was 0.63 mg/L (≈ 1.61 µM) in each case.

`Nc1nc(Cl)c2ncn(C[C@@H]3C[C@H](CO)c4c(-c5ccccc5)nnc(-c5ccccc5)c43)c2n1`: the half-maximal inhibitory concentration (IC50) in experiment [10] was above 200 µM.

Turning to `Cc1cn(C[C@@H]2C[C@H](CO)c3ccccc32)c(=O)[nH]c1=O`, the IC50 in experiment [4], in experiment [5] and in experiment [6] was 81 mg/L (≈ 283 µM) each time.

`CC[C@H](C)[C@H](N)C(=O)OC[C@H]1O[C@@H](Cn2cnc3c(N)ncnc32)[C@H](O)[C@@H]1O`: the half-inhibitory concentration (IC50) in experiment [11] is above 128 µM.

In the case of `CSCC[C@H](N)C(=O)OC[C@H]1O[C@@H](n2cnc3c(N)ncnc32)[C@H](O)[C@@H]1O`, in experiment [12], the IC50 was found to be 5 µM.

In the case of `OCC12C=CC(Cn3cnc4c(Cl)ncnc43)(O1)c1ccccc12` (stereo not drawn), in [13], the midpoint of the response, the EC50, lay at 45.1 µM. This lies in the double-digit micromolar range.

Take `CSCC[C@H](N)C(=O)OC[C@H]1O[C@@H](Cn2cnc3c(NCc4ccccc4)ncnc32)[C@H](O)[C@@H]1O`: the IC50 in experiment [12] turned out to be 3.6 µM.

For `O=C(OCC12C=CC(O1)c1cc3ccccc3cc12)c1ccccc1` (stereo not drawn), the response in [13] was half-maximal at 6.31 µM (EC50). This counts as single-digit micromolar.

With `OC[C@H]1N[C@@H](Cn2cnc3c(O)ncnc32)[C@H](O)[C@@H]1O`, the inhibition constant Ki was found to be 5.4 µM in experiment [14] and 3.6 µM in experiment [15].

For `CSCC[C@H](N)C(=O)OC[C@H]1O[C@@H](Cn2cnc3c(N)ncnc32)[C@H](O)[C@@H]1O`, the concentration for half-maximal inhibition (IC50) in experiment [12] was 3.6 µM.

`Clc1ncnc2c1ncn2CC12C=CC(O1)c1ccccc12` (stereo not drawn): the concentration giving a half-maximal response (EC50) in experiment [13] was 6.31 µM.

Turning to `CSCC[C@H](N)C(=O)N(O)C[C@H]1O[C@@H](Cn2cnc3c(N)ncnc32)[C@H](O)[C@@H]1O`, the IC50 in experiment [12] amounted to 3.6 µM.

`OC[C@H]1C[C@@H](Cn2cnc3c(NC4CC4)ncnc32)c2ccccc21`: the IC50 in experiment [4], in experiment [5] and in [6] was 24 mg/L (≈ 71.6 µM) throughout.

Turning to `COc1ncnc2c1ncn2C[C@@H]1C[C@H](CO)c2ccccc21`, the IC50 in experiment [4], in experiment [5] and in experiment [6] was 24 mg/L (≈ 77.3 µM) in each case.

For the molecule `CC1(C)[C@@H](Cn2cnc3c(N)nc(N)nc32)CC[C@@]1(C)CO`, the EC50 in experiment [16] and in experiment [17] was 4 mg/L (≈ 13.1 µM) throughout.

For `CC(C)Nc1ncnc2c1ncn2C[C@@H]1C[C@H](CO)c2ccccc21`, the IC50 in experiment [4], in [5] and in experiment [6] was 24 mg/L (≈ 71.1 µM) in each case.

`Nc1nc2c(ncn2C[C@H]2C=C[C@@H](CO)C2)c(=O)[nH]1` gave a half-inhibitory concentration (IC50) in experiment [10] above 200 µM.

For `OCC12CCC(O1)c1cc3ccccc3cc12` (stereo not drawn), a half-maximal effect in [13] (EC50) was put at 6.31 µM.
